# Calls of active or inactive are those of the source. How the calls were made is not given here.
# System: CCRIS mutagenicity, Ames/micronucleus/aberration tests
# Experiment: CCRIS mutagenicity studies
# [1] = Test System: AMES SALMONELLA TYPHIMURIUM, Strain/Indicator: TA98, Metabolic Activation: NONE, Method: PREINCUBATION
# [2] = Test System: AMES SALMONELLA TYPHIMURIUM, Strain/Indicator: TA100, Metabolic Activation: NONE, Method: PREINCUBATION
# [3] = Test System: AMES SALMONELLA TYPHIMURIUM, Strain/Indicator: TA100, Metabolic Activation: NONE, Method: STANDARD PLATE
# [4] = Test System: AMES SALMONELLA TYPHIMURIUM, Strain/Indicator: TA1537, Metabolic Activation: NONE, Method: STANDARD PLATE
# [5] = Test System: AMES SALMONELLA TYPHIMURIUM, Strain/Indicator: TA98, Metabolic Activation: NONE, Method: STANDARD PLATE
smiles,measurement,setting,value
CCc1cc(C(N)=S)ccn1,mutagenic call,"End Point: IN VITRO CHROMOSOMAL ABERRATIONS, Test System: CHO CELLS, Metabolic Activation: NONE",inactive; negative; significant increase at 7 mm attributed to precipitation
same,mutagenic call,"Test System: AMES SALMONELLA TYPHIMURIUM, Strain/Indicator: TA97, Metabolic Activation: HAMSTER, LIVER, S-9, AROCLOR 1254 (10%), Method: PREINCUBATION",inactive; negative
same,mutagenic call,"Test System: AMES SALMONELLA TYPHIMURIUM, Strain/Indicator: TA97, Metabolic Activation: HAMSTER, LIVER, S-9, AROCLOR 1254 (30%), Method: PREINCUBATION",inactive; negative
same,mutagenic call,"Test System: AMES SALMONELLA TYPHIMURIUM, Strain/Indicator: TA97, Metabolic Activation: NONE, Method: PREINCUBATION",inactive; negative
same,mutagenic call,"Test System: AMES SALMONELLA TYPHIMURIUM, Strain/Indicator: TA97, Metabolic Activation: RAT, LIVER, S-9, AROCLOR 1254 (10%), Method: PREINCUBATION",inactive; negative
same,mutagenic call,"Test System: AMES SALMONELLA TYPHIMURIUM, Strain/Indicator: TA97, Metabolic Activation: RAT, LIVER, S-9, AROCLOR 1254 (30%), Method: PREINCUBATION",inactive; negative
same,mutagenic call,"Test System: AMES SALMONELLA TYPHIMURIUM, Strain/Indicator: TA98, Metabolic Activation: HAMSTER, LIVER, S-9, AROCLOR 1254 (10%), Method: PREINCUBATION",inactive; negative
same,mutagenic call,"Test System: AMES SALMONELLA TYPHIMURIUM, Strain/Indicator: TA98, Metabolic Activation: HAMSTER, LIVER, S-9, AROCLOR 1254 (30%), Method: PREINCUBATION",inactive; negative
same,mutagenic call,[1],inactive; negative
same,mutagenic call,"Test System: AMES SALMONELLA TYPHIMURIUM, Strain/Indicator: TA98, Metabolic Activation: RAT, LIVER, S-9, AROCLOR 1254 (10%), Method: PREINCUBATION",inactive; negative
same,mutagenic call,"Test System: AMES SALMONELLA TYPHIMURIUM, Strain/Indicator: TA98, Metabolic Activation: RAT, LIVER, S-9, AROCLOR 1254 (30%), Method: PREINCUBATION",inactive; negative
same,mutagenic call,"Test System: AMES SALMONELLA TYPHIMURIUM, Strain/Indicator: TA100, Metabolic Activation: HAMSTER, LIVER, S-9, AROCLOR 1254 (10%), Method: PREINCUBATION",inactive; negative
same,mutagenic call,"Test System: AMES SALMONELLA TYPHIMURIUM, Strain/Indicator: TA100, Metabolic Activation: HAMSTER, LIVER, S-9, AROCLOR 1254 (30%), Method: PREINCUBATION",inactive; negative
same,mutagenic call,[2],inactive; negative
same,mutagenic call,"Test System: AMES SALMONELLA TYPHIMURIUM, Strain/Indicator: TA100, Metabolic Activation: RAT, LIVER, S-9, AROCLOR 1254 (10%), Method: PREINCUBATION",inactive; negative
same,mutagenic call,"Test System: AMES SALMONELLA TYPHIMURIUM, Strain/Indicator: TA100, Metabolic Activation: RAT, LIVER, S-9, AROCLOR 1254 (30%), Method: PREINCUBATION",inactive; negative
same,mutagenic call,"Test System: AMES SALMONELLA TYPHIMURIUM, Strain/Indicator: TA1535, Metabolic Activation: HAMSTER, LIVER, S-9, AROCLOR 1254 (10%), Method: PREINCUBATION",inactive; negative
same,mutagenic call,"Test System: AMES SALMONELLA TYPHIMURIUM, Strain/Indicator: TA1535, Metabolic Activation: HAMSTER, LIVER, S-9, AROCLOR 1254 (30%), Method: PREINCUBATION",inactive; negative
same,mutagenic call,"Test System: AMES SALMONELLA TYPHIMURIUM, Strain/Indicator: TA1535, Metabolic Activation: NONE, Method: PREINCUBATION",inactive; negative
same,mutagenic call,"Test System: AMES SALMONELLA TYPHIMURIUM, Strain/Indicator: TA1535, Metabolic Activation: RAT, LIVER, S-9, AROCLOR 1254 (10%), Method: PREINCUBATION",inactive; negative
same,mutagenic call,"Test System: AMES SALMONELLA TYPHIMURIUM, Strain/Indicator: TA1535, Metabolic Activation: RAT, LIVER, S-9, AROCLOR 1254 (30%), Method: PREINCUBATION",inactive; negative
O[C@H]1[C@H](O)COC(NCCc2c[nH]c3ccccc23)[C@@H]1O (some centres undefined),mutagenic call,"Test System: AMES SALMONELLA TYPHIMURIUM, Strain/Indicator: TA100, Metabolic Activation: NONE, Method: LIQUID INCUBATION",active; positive
CC(CN(CC(=O)O)CC(=O)O)N(CC(=O)O)CC(=O)O (centres undefined),mutagenic call,"Test System: CHINESE HAMSTER V-79, Strain/Indicator: V-79/OUABAIN, Metabolic Activation: NONE, Method: STANDARD PLATE",active; positive
same,mutagenic call,"Test System: UDS RODENT CELLS, Strain/Indicator: THY INCORP (NON-S-PHASE), Metabolic Activation: NONE, Method: AUTORADIOGRAPHY",active; positive
O=C(Nc1ccccc1)Nc1snc2ccccc12,mutagenic call,[3],inactive; negative
same,mutagenic call,"Test System: AMES SALMONELLA TYPHIMURIUM, Strain/Indicator: TA100, Metabolic Activation: S-9, Method: STANDARD PLATE",inactive; negative
same,mutagenic call,[4],inactive; negative
same,mutagenic call,"Test System: AMES SALMONELLA TYPHIMURIUM, Strain/Indicator: TA1537, Metabolic Activation: S-9, Method: STANDARD PLATE",inactive; negative
COc1cc(C[C@@H]2NCCc3cc(O)c(O)cc32)cc(OC)c1OC,mutagenic call,[5],inactive; negative
same,mutagenic call,"Test System: AMES SALMONELLA TYPHIMURIUM, Strain/Indicator: TA98, Metabolic Activation: RAT, LIVER, S-9, AROCLOR 1254, Method: STANDARD PLATE",inactive; negative
same,mutagenic call,[3],inactive; negative
same,mutagenic call,"Test System: AMES SALMONELLA TYPHIMURIUM, Strain/Indicator: TA100, Metabolic Activation: RAT, LIVER, S-9, AROCLOR 1254, Method: STANDARD PLATE",inactive; negative
same,mutagenic call,"Test System: AMES SALMONELLA TYPHIMURIUM, Strain/Indicator: TA1535, Metabolic Activation: NONE, Method: STANDARD PLATE",inactive; negative
same,mutagenic call,"Test System: AMES SALMONELLA TYPHIMURIUM, Strain/Indicator: TA1535, Metabolic Activation: RAT, LIVER, S-9, AROCLOR 1254, Method: STANDARD PLATE",inactive; negative
same,mutagenic call,[4],inactive; negative
same,mutagenic call,"Test System: AMES SALMONELLA TYPHIMURIUM, Strain/Indicator: TA1537, Metabolic Activation: RAT, LIVER, S-9, AROCLOR 1254, Method: STANDARD PLATE",inactive; negative
CCC(=O)CN(C)N=O,mutagenic call,"Test System: CHINESE HAMSTER V-79, Strain/Indicator: V-79/OUABAIN, Metabolic Activation: HAMSTER, HEPATOCYTES, Method: CELL-MEDIATED",active; positive
Fc1ccc2ccc3cccnc3c2c1,mutagenic call,"Test System: AMES SALMONELLA TYPHIMURIUM, Strain/Indicator: TA100, Metabolic Activation: RAT, LIVER, S-9, PHENOBARBITAL AND 5,6-BENZOFLAVONE, Method: PREINCUBATION",active; positive
Clc1cccc2oc3ccccc3c12,mutagenic call,[5],inactive; negative
same,mutagenic call,"Test System: AMES SALMONELLA TYPHIMURIUM, Strain/Indicator: TA98, Metabolic Activation: RAT, LIVER, S-9, PHENOBARBITAL AND NAPHTHOFLAVONE, Method: STANDARD PLATE",inactive; negative
same,mutagenic call,[3],inactive; negative
same,mutagenic call,"Test System: AMES SALMONELLA TYPHIMURIUM, Strain/Indicator: TA100, Metabolic Activation: RAT, LIVER, S-9, PHENOBARBITAL AND NAPHTHOFLAVONE, Method: STANDARD PLATE",inactive; negative
NNc1nncc2cnccc12,mutagenic call,[1],active; positive
same,mutagenic call,"Test System: AMES SALMONELLA TYPHIMURIUM, Strain/Indicator: TA98, Metabolic Activation: RAT, LIVER, S-9, PCB, Method: PREINCUBATION",active; positive
same,mutagenic call,[2],active; positive
same,mutagenic call,"Test System: AMES SALMONELLA TYPHIMURIUM, Strain/Indicator: TA100, Metabolic Activation: RAT, LIVER, S-9, PCB, Method: PREINCUBATION",active; positive
CCc1cc(-c2ccccc2)cc(CC)c1N,mutagenic call,[5],inactive; negative
same,mutagenic call,"Test System: AMES SALMONELLA TYPHIMURIUM, Strain/Indicator: TA98, Metabolic Activation: RAT LIVER S-9, AROCLOR, Method: STANDARD PLATE",inactive; negative
same,mutagenic call,[3],inactive; negative
same,mutagenic call,"Test System: AMES SALMONELLA TYPHIMURIUM, Strain/Indicator: TA100, Metabolic Activation: RAT LIVER S-9, AROCLOR, Method: STANDARD PLATE",inactive; negative
c1ccc2c(c1)cc1c3c2ccc2cccc(c23)C2NC12 (centres undefined),mutagenic call,[5],active; positive
same,mutagenic call,"Test System: AMES SALMONELLA TYPHIMURIUM, Strain/Indicator: TA100, Metabolic Activation: MICROSOMAL EPOXIDE HYDROLASE, Method: PREINCUBATION",active; positive
same,mutagenic call,[2],active; positive
same,mutagenic call,[3],active; positive
same,mutagenic call,"Test System: CHINESE HAMSTER V-79, Strain/Indicator: V-79/6-THIOGUANINE, Metabolic Activation: NONE, Method: REPLATING",active; positive
same,mutagenic call,"Test System: CHINESE HAMSTER V-79, Strain/Indicator: V-79/6-THIOGUANINE, Metabolic Activation: NONE, Method: STANDARD PLATE",active; positive
same,mutagenic call,"Test System: E. COLI, Strain/Indicator: WP2UVRA, Metabolic Activation: NONE, Method: STANDARD PLATE",active; positive
O=CN(O)c1ccc(Oc2ccc(Cl)cc2)cc1,mutagenic call,[3],inactive; negative
same,mutagenic call,"Test System: AMES SALMONELLA TYPHIMURIUM, Strain/Indicator: TA100, Metabolic Activation: RAT, LIVER, S-9, KANECLOR 500, Method: STANDARD PLATE",active; positive

# From PubChem BioAssay AID1259407 (Chemical Carcinogenesis Research Information System (CCRIS), 2018)
